Results as given in patent publication US8367332B2, “Detection and quantification of abasic site formation in vivo” (Case Western Reserve University, priority 2008, dated 2013).

Experiments:
[1] = system: AP sites; test: In vivo blocking experiment with unlabelled MX (microPET, glioma tumors); design: species or system mice; conditions: TMZ 80 mg/kg; unlabelled MX 2-10 mg/kg 30 min before [^11C]MX 2 mCi/kg; p value=0.003
Procedure: FIG. 4 illustrates; (A) plots of time-radioactivity courses of [^11C]MX in the glioma tumors before and after blocking by unlabelled MX; and (B) a graph showing average SUV between 0-60 min (n=4, where n is the number of tumors imaged and analyzed). Decrease of radioactivity concentration indicates in vivo blocking of AP binding sites by unlabeled MX (p value=0.003).
Thus, we conducted in vivo blocking experiment in tumor mice with unlabelled MX as a further test of whether the difference in radioactivity concentrations between TMZ-treated and untreated tumors is due to specific binding of [^11C]MX to AP sites. For this purpose, 4 tumor-bearing mice were treated with TMZ (80 mg/kg) for 10 min. Following the treatment, two mice were injected with unlabelled MX (2-10 mg/kg) and two were injected with vehicle control. Thirty minutes later, 2 mCi/kg of [^11C]MX was administered to each mouse and microPET imaging was performed. In each case, a vehicle-treated and an unlabeled MX-treated mouse were imaged side-by-side. Dynamic acquisition was carried out for 60 min in list mode.

[2] = system: AP sites; test: ARP assay of AP sites in A375 melanoma cells; assay type: cell-based; conditions: 12.5 mM co-treatment with TMZ, 24 hr
Procedure: FIG. 5 illustrates a graph showing AP sites increased in melanoma cells (A375) after treatment with TMZ in a dose-dependent manner. Using ARP assay, formation of AP sites in A375 melanoma cells were measured. Cells were treated with TMZ (0-1500 μM) alone or TMZ plus MX (12.5 mM) for 24 hr for a dose-dependent assay (black), or treated with TMZ and MX (12.5 mM) for 24 hr, or treated with TMZ and F422 (12.5 mM) for 24 hours.

[3] = system: AP sites; test: microPET of [^11C]MX in melanoma (WM164) xenografts, TMZ-treated vs non-treated; assay type: in vivo, mice; conditions: melanoma xenograft
Procedure: (§1) Melanoma and glioma xenografts were prepared according to previously published procedures. Briefly, glioma (U87) and melanoma (WM164) tumor cells (5×10^6) were injected into the bilateral flanks of female athymic NRC nude mice (6-8 weeks of age). When the volume of tumor nodules reached 150-200 mm^3, mice are randomly assigned to control or treatment groups (4 mice/group).
(§2) Following MRI studies, the mice were transferred to a Concord R4 microPET scanner under anesthesia. The same holder was used for microPET studies so that the tumor positions of the mice remain unchanged in order to facilitate image coregistration with MRI. Subsequently, dynamic microPET scans were performed over 60 min in a list mode, immediately after a bolus injection of ca. 500 μCi of [^11C]MX via the tail vein. Body temperature in the anesthetized animals was monitored using a rectal temperature probe and maintained at 37+/−2° C. with a heating lamp or a heating pad.
(§3) Following MRI and microPET studies, we conducted quantitative image analysis in order to evaluate the in vivo pharmacokinetic profiles of [^11C]MX in tumor tissues. We defined the tumor tissues as the region of interest (ROI) through coregistration of microPET images with MRI images. The co-registered images were used for quantitative image analysis to determine [^11C]MX uptake and retention associated with tumor tissues. The radioactivity concentration in the tumor regions is expressed in terms of standard uptake volume (SUV) [(μCi/cc)/(uCi/g)] as a function of time.
Because TMZ, like dacarbazine, has been used in the treatment patients with metastatic malignant melanoma, we first conducted microPET studies in human (WM164) melanoma xenograft tumor model. In each experiment, two mice bearing melanoma xenografts were used, one treated with TMZ (80 mg/kg) to induce DNA damage and the other used as negative control. Prior to microPET scans, the mice were placed in a 7T MRI scanner and T2-weighted MRI images were acquired following the above-mentioned protocol. […]

[4] = system: AP sites; test: microPET of [^11C]MX in flank glioma (U87) xenografts, TMZ-treated vs non-treated; assay type: in vivo, mice; conditions: flank glioma xenograft; TMZ 80 mg/kg; 60 min scan
Procedure: as §1
as §2, with “Subsequently, dynamic microPET scans were performed over 60 min in a list mode, immediately after a bolus injection of ca. 500 μCi of [^11C]MX via the tail vein.” left out
as §3, with “We defined the tumor tissues as the region of interest (ROI) through coregistration of microPET images with MRI images.” left out
Malignant glioma is another type of cancer that can be effectively treated with TMZ because TMZ can readily penetrate the blood-brain barrier. […]

Row | SMILES | concentration of tumor-associated radioactivity after blocking with unlabelled MX [1] | ARP detected AP sites on co-treatment with TMZ [2] | radioactivity concentration in tumor, TMZ-treated vs non-treated mice ([3]; TMZ 80 mg/kg, 10 min post injection of [^11C]MX (ca. 2 mCi/kg i.v.)) [fold] | tumor uptake of [^11C]MX in TMZ-treated vs non-TMZ treated mice ([3]; TMZ 80 mg/kg, 60 min scan) | entry of [^11C]MX into tumor tissue ([3]; i.v. ca. 2 mCi/kg, microPET) | retention of [^11C]MX in tumor regions [4]
1 | CON [MX, methoxyamine] | significantly decreased | reduced the ARP detected AP sites | – | – | – | –
2 | [11CH3]ON [[^11C]MX, (^11C)methoxyamine] | – | – | 1.6 | increased uptake | readily entered the tumor tissue at early time points | higher in TMZ-treated tumor regions than in non-treated tumor regions
